In the assay the target is SSTR2 (Homo sapiens, UniProt P30874). The experiment in a line: SSTR binding affinity by radioligand binding competition assay ([125I]-Tyr11-Somatostatin, membrane extracts). Conditions: radioligand competition, [125I]-Tyr11-Somatostatin 0.1 nM, membrane extracts, Ki from IC50 by Cheng Prusoff. The protocol:
Macrocyclic peptides in this invention were tested for binding to SSTR protein by a radioligand binding competition assay. For radioligand binding assay, competition binding is performed in duplicate in the wells of a 96 well plate containing binding buffer (HEPES 25 mM pH 7.4, MgCl2 5 mM, CaCl2 1 mM, BSA 0.5%, Saponine 10 μg/ml)), membrane extracts (0.6 μg protein/well), radiotracer ([125I]-Tyr11-Somatostatin, Perkin Elmer NEX389) and test compound. Nonspecific binding is determined by co-incubation with 200-fold excess of cold competitor (SST28). The samples are incubated in a final volume of 0.1 ml for 60 min at room temperature and then filtered over UniFilter-96 GF/C (Revvity 6055690) filter plates. Filters are washed six times with 0.5 ml of ice-cold washing buffer (HEPES 25 mM pH 7.4, MgCl2 5 mM, CaCl2 1 mM) and 50 μl of Microscint 20 (Packard) are added in each well. The plates are incubated 15 min on an orbital shaker and then counted with a TopCount™ for 1 min/well. For IC50 to Ki determination, the Cheng Prusoff equation is used: Ki=IC50/(1+ [tracer]/Kd). [Tracer] is 0.1 nM as mentioned above.

Molecules are shown by their SMILES. Read-outs that look alike come from different tables or passages of the source. Numbered stars: 1 amine (or outer) side, 2 acyl side, 3 side chain; on linkers, the order of the positions; unused ones are H or OH. Square brackets hold non-standard residues; d marks the D form. Peptide text beside a SMILES is read from it. * marks the point of attachment. DOTA(Lu)NH(CH2)6NHCOCH2 = O=C(CN1CCN2CCN3CCN(CC1)CC(=O)[O][Lu]([O]C(=O)C2)[O]C(=O)C3)NCCCCCCNC(=O)C*; dTrp(βS-Me) = C[C@@H](c1c[nH]c2ccccc12)[C@@H](N)C(=O)O; X4 = C[C@@H](c1ccccc1)[C@H](N[*:1])C(=O)[*:2]; Phe(3R-Me) = C[C@H](c1ccccc1)[C@H](N)C(=O)O; 3Pal = N[C@@H](Cc1cccnc1)C(=O)O; 4Pal = N[C@@H](Cc1ccncc1)C(=O)O; NMehCys = CN[C@@H](CCS)C(=O)O Some results are limits rather than exact numbers.

SSTR2, sequence (P30874 whole entry): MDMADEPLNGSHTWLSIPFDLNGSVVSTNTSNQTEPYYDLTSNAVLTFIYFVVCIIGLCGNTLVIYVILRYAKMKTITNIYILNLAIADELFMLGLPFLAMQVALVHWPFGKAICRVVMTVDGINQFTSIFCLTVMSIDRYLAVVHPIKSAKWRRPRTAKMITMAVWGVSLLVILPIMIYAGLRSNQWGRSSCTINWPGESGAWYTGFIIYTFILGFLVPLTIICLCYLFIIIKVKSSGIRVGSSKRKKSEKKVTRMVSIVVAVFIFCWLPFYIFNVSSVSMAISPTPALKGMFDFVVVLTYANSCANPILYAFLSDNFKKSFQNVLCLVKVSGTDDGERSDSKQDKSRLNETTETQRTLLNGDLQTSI

On to `C[C@@H](O)[C@@H]1NC(=O)[C@H](CCCCN)NC(=O)[C@@H](Cc2c[nH]c3ccccc23)NC(=O)[C@H]([C@@H](C)c2ccccc2)NC(=O)[C@H](CCSCC(=O)NCCCCCCNC(=O)CN2CCN3CCN4CCN(CC2)CC(=O)[O][Lu]([O]C(=O)C3)[O]C(=O)C4)N(C)C(=O)[C@H](Cc2ccccc2)NC1=O` [RB-0003136] (cyclo(F[NMehCys](DOTA(Lu)NH(CH2)6NHCOCH2)[X4][dW]KT)), for which the Ki (read-out: SSTR2 Ki) fell in the range of 1 to 3.33 nM.

Regarding `C[C@H](c1ccccc1)[C@@H]1NC(=O)[C@H](CCSCC(=O)NCCCCCCNC(=O)CN2CCN3CCN4CCN(CC2)CC(=O)[O][Lu]([O]C(=O)C3)[O]C(=O)C4)N(C)C(=O)[C@H](Cc2ccccc2)NC(=O)[C@H]([C@@H](C)O)NC(=O)[C@H](CCCCN)NC(=O)[C@@H](Cc2c[nH]c3ccccc23)NC1=O` [RB-0003137] (cyclo(F[NMehCys](DOTA(Lu)NH(CH2)6NHCOCH2)[Phe(3R-Me)][dW]KT)), the Ki (read-out: SSTR2 Ki) was < 1 nM.

On to `C[C@@H](O)[C@@H]1NC(=O)[C@H](CCCCN)NC(=O)[C@@H]([C@@H](C)c2c[nH]c3ccccc23)NC(=O)[C@H](Cc2ccc(O)cc2)NC(=O)[C@H](CCSCC(=O)NCCCCCCNC(=O)CN2CCN3CCN4CCN(CC2)CC(=O)[O][Lu]([O]C(=O)C3)[O]C(=O)C4)N(C)C(=O)[C@H](Cc2ccccc2)NC1=O` [RB-0003148] (cyclo(F[NMehCys](DOTA(Lu)NH(CH2)6NHCOCH2)Y[dTrp(βS-Me)]KT)), for which the Ki (read-out: SSTR2 Ki) is < 1 nM.

Turning to `C[C@@H](O)[C@@H]1NC(=O)[C@H](CCCCN)NC(=O)[C@@H](Cc2c[nH]c3ccccc23)NC(=O)[C@H](Cc2ccc(O)cc2)NC(=O)[C@H](CSCC(=O)NCCCCCCNC(=O)CN2CCN3CCN4CCN(CC2)CC(=O)[O][Lu]([O]C(=O)C3)[O]C(=O)C4)N(C)C(=O)[C@H](Cc2ccccc2)NC1=O` [RB-0003164], for the setting “SSTR2 Ki”, the Ki is 1 to 3.33 nM.

For the setting “SSTR2 Ki”, `C[C@@H](O)[C@@H]1NC(=O)[C@H](CCCCN)NC(=O)[C@@H](Cc2c[nH]c3ccccc23)NC(=O)[C@H](Cc2ccc(O)cc2)NC(=O)[C@H](CCCCNC(=O)[C@H]2CC[C@H](CNC(=O)CN3CCN4CCN5CCN(CC3)CC(=O)[O][Lu]([O]C(=O)C4)[O]C(=O)C5)CC2)N(C)C(=O)[C@H](Cc2ccccc2)NC1=O` [RB-0003246] came in with an inhibitory constant (Ki) of 1 to 3.33 nM.

Regarding `C[C@@H](O)[C@@H]1NC(=O)[C@H](CCCCN)NC(=O)[C@@H](Cc2c[nH]c3ccccc23)NC(=O)[C@H](Cc2ccc(O)cc2)NC(=O)[C@H](CCCCNC(=O)COCCOCCOCCNC(=O)CN2CCN3CCN4CCN(CC2)CC(=O)[O][Lu]([O]C(=O)C3)[O]C(=O)C4)N(C)C(=O)[C@H](Cc2ccccc2)NC1=O` [RB-0003248], the Ki (SSTR2 Ki) lay within 3.33 to 10 nM.

As to `C[C@@H](O)[C@@H]1NC(=O)[C@H](CCCCN)NC(=O)[C@@H](Cc2c[nH]c3ccccc23)NC(=O)[C@H](Cc2ccc(O)cc2)NC(=O)[C@H](CCSCC(=O)NCCCCCCNC(=O)CN2CCN3CCN4CCN(CC2)CC(=O)[O][Lu]([O]C(=O)C3)[O]C(=O)C4)N(C)C(=O)[C@H](Cc2cccnc2)NC1=O` [RB-0003276] (cyclo([3Pal][NMehCys](DOTA(Lu)NH(CH2)6NHCOCH2)Y[dW]KT)), the Ki (read-out: SSTR2 Ki) was in the range of 3.33 to 10 nM.

With `C[C@@H](O)[C@@H]1NC(=O)[C@H](CCCCN)NC(=O)[C@@H](Cc2c[nH]c3ccccc23)NC(=O)[C@H](Cc2ccc(O)cc2)NC(=O)[C@H](CCSCC(=O)NCCCCCCNC(=O)CN2CCN3CCN4CCN(CC2)CC(=O)[O][Lu]([O]C(=O)C3)[O]C(=O)C4)N(C)C(=O)[C@H](Cc2ccncc2)NC1=O` [RB-0003277] (cyclo([4Pal][NMehCys](DOTA(Lu)NH(CH2)6NHCOCH2)Y[dW]KT)), the Ki (read-out: SSTR2 Ki) lay within 1 to 3.33 nM.

In the case of `C[C@@H](O)[C@@H]1NC(=O)[C@H](CCCCN)NC(=O)[C@@H](Cc2c[nH]c3ccccc23)NC(=O)[C@H](Cc2ccc(O)cc2)NC(=O)[C@H](CCSCC(=O)NCCCCCCNC(=O)CN2CCN3CCN4CCN(CC2)CC(=O)[O][Lu]([O]C(=O)C3)[O]C(=O)C4)N(C)C(=O)[C@H]([C@@H](C)c2ccccc2)NC1=O` [RB-0003278] (cyclo(KT[X4][NMehCys](DOTA(Lu)NH(CH2)6NHCOCH2)Y[dW])), the Ki (read-out: SSTR2 Ki) is 1 to 3.33 nM.

Values taken from US20250222146A1, “Radiopharmaceuticals Targeting Somatostatin Receptor 2 and Uses Thereof” (RayzeBio, Inc., priority 2023, published 2025).
